Results published in paper PMC12688159, “Chemosensory protein 3 is a brain host factor for the induction of enhanced-locomotory activity in the BmNPV-silkworm infection model” (PLOS Pathogens, 2025).

What was measured:
[1] = biological target: T1, BmCSP3 (chemosensory protein 3) (Bombyx mori, UniProt Q3LBA2); assay: biochemical; parameters: 1-NPN fluorescence displacement binding with purified BmCSP3; Ki by Cheng-Prusoff from interpolated EC50; conditions: 4 uM BmCSP3, 10 uM 1-NPN, pH 8.0, 25 °C; read-out: Ki (μΜ)
T1 construct: residues 19–109 of UniProt entry Q3LBA2
T1 sequence (Q3LBA2 19-127): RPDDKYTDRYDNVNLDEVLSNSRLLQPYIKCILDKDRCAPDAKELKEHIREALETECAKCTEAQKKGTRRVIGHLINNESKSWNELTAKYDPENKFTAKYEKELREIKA
Protocol: The dissociation constant (Kd) of the fluorescent probe 1-NPN (N-Phenyl-1-naphthylamine) was determined in solutions containing 4 μΜ BmCSP3 in 20 mM Tris-HCl pH 8.0, 100 mM NaCl by addition of 0 το 20 μM 1-NPN. To determine the ligands’ Ki, 1-NPN displacement was measured in solutions containing 4 μΜ BmCSP3, 10 μΜ 1-NPN and ligand concentrations ranged from 0-20 μΜ and 0–32 μΜ, for the tested neurotranmiters and lipids, respectively. Control samples containing the ligand and 1-NPN, but lacking protein, were run in parallel to determine background fluorescence, which was subtracted from the experimental data. All experiments were performed in technical triplicate. The determination of dissociation constants and the visualization of the binding curves was carried out using the non-linear regression analysis program GraphPad Prism 8 (www.graphpad.com). The Kd of 1-NPN for BmCSP3 was determined to be 5.8 μΜ by fitting the fluorescence data to a single-binding site saturation model described by the equation Given that the bottom values never reaches zero and varied among the different experiments, the ligand concentration that reduced the initial fluorescence by 50% (EC50int) was estimated from the displacement binding curves by interpolation, using the built-in interpolation function of GraphPad Prism. Subsequently, the ligand’s dissociation constant (Ki) was determined using the Cheng-Prusoff equation: […]

[2] = biological target: T1, BmCSP3 (chemosensory protein 3); assay: biochemical; parameters: 1-NPN fluorescence displacement from purified BmCSP3; EC50int interpolated, Ki by Cheng-Prusoff; conditions: EC50int, 1-NPN displacement; read-out: EC50,int ± SE (μΜ)
Protocol: The dissociation constant (Kd) of the fluorescent probe 1-NPN (N-Phenyl-1-naphthylamine) was determined in solutions containing 4 μΜ BmCSP3 in 20 mM Tris-HCl pH 8.0, 100 mM NaCl by addition of 0 το 20 μM 1-NPN. To determine the ligands’ Ki, 1-NPN displacement was measured in solutions containing 4 μΜ BmCSP3, 10 μΜ 1-NPN and ligand concentrations ranged from 0-20 μΜ and 0–32 μΜ, for the tested neurotranmiters and lipids, respectively. Control samples containing the ligand and 1-NPN, but lacking protein, were run in parallel to determine background fluorescence, which was subtracted from the experimental data. All experiments were performed in technical triplicate. Given that the bottom values never reaches zero and varied among the different experiments, the ligand concentration that reduced the initial fluorescence by 50% (EC50int) was estimated from the displacement binding curves by interpolation, using the built-in interpolation function of GraphPad Prism.

[3] = biological target: T1, BmCSP3 (chemosensory protein 3); assay: direct fluorescence titration of the probe with purified protein, single-site saturation fit; format: binding
[4] = biological target: T1, BmCSP3 (chemosensory protein 3); assay: 1-NPN fluorescence displacement binding assay with purified protein

Structure (SMILES) | Ki [1] [nM] | EC50 [2] [nM] | Kd [3] [nM] | Ki ([4]; read-out: Ki) [nM] | Ki [4] [nM]
NCCCC(N)C(=O)O (racemic) [DL-Ornithine] | > 20000 | > 20000 |  |  | 
c1ccc(Nc2cccc3ccccc23)cc1 [1-NPN, N-Phenyl-1-naphthylamine] |  |  | 5800 |  | 
CC/C=C\C/C=C\C=C\[C@@H](O)CCCCCCCC(=O)O [9(S)-HOTrE, (10E,12Z,15Z)-9-hydroxyoctadeca-10,12,15-trienoic acid] |  | 790 ± 100 |  | 290 | 
NCC(=O)O [Glycine] | > 20000 | > 20000 |  |  | 
O=C(O)Cc1cc(O)ccc1O [Homogentisic acid] |  | 6760 ± 1580 |  |  | 2500
NC(=O)CC[C@H](N)C(=O)O [L-glutamine] |  | 7780 ± 1480 |  | 2800 | 
Nc1ccccc1C(=O)C[C@H](N)C(=O)O [L-kynurenine] |  | 200 ± 20 |  | 72 | 
NCCCC[C@H](N)C(=O)O [L-lysine] | > 14000 | > 20000 |  |  | 
CC(=O)NCCc1c[nH]c2ccc(O)cc12 [N-acetylserotonin] |  | 5820 ± 1130 |  | 2130 | 
NCCc1c[nH]c2ccc(O)cc12 [Serotonin] |  | 4810 ± 1170 |  |  | 1800
NCCc1c[nH]c2ccccc12 [Tryptamine] |  | 30 ± 10 |  |  | 11
